This is an account of results in US20200237793A1, “IMMUNOMODULATORY OLIGOSACCHARIDES” (The Regents of the University of California, priority 2017, published 2020).

Structures are written as SMILES.

One data set has as its system RAW 264.7 cells. In words: Pro-inflammatory cytokine mRNA expression (RT-PCR) in LPS-stimulated macrophages. It counts as cell-based, murine. The procedure: RAW246.7 cells were exposed to LPS either alone or in combination with either pooled human milk oligosaccharides (HMOs), or 3′-sialyllactose (3′SL) or 2′-fucosyllactose (2′FL). After 6 hours, IL-6 (A) and IL-1β (B) mRNA levels were measured by RT-PCR and are plotted as mean±standard deviation (n=8) relative the respective mRNA levels in cells that were exposed to LPS alone (**p<0.01; ***p<0.001). HMOs are a group of more than 150 different structurally distinct oligosaccharides and their composition follows a basic structural blueprint (C), containing five monosaccharide building blocks: glucose (dark gray circle), galactose (light gray circle), N-acetylglucosamine (dark gray square), fucose (gray triangle) and sialic acid (gray diamond). 3′SL contains lactose with sialic acid at the terminal end; 2′FL contains lactose with fucose at the terminal end.
HMOs were first isolated and purified from pooled human donor milk (pHMO) by using polymixin B affinity chromatography to remove any lipopolysaccharide (LPS) contamination. RAW 264.7 cells, a murine macrophage cell line, were then incubated with LPS (10 ng/mL) and pHMO (500 μg/mL) for 6 hours. RT-PCR was used to measure cytokine mRNA expression.
A multi-dimensional chromatography approach was used that separates pHMO first by charge and then by size. […]

The test system of data set [1] is bone marrow derived macrophages. In words: Pro-inflammatory cytokine expression in primary mouse cells. It is filed as cell-based. The text has this:
(§1) Accordingly, the results with 3′SL translate to primary cells as well as to human macrophages.

Data set [2] concerns THP-1 monocytic cell line. In words: Pro-inflammatory cytokine expression in human monocytic cell line. It counts as cell-based. As to conditions: human THP-1.
Description: as §1

In data set [3] the test system is collagen antibody-induced arthritis (CAIA) model. In words: Collagen antibody-induced arthritis (CAIA) model. It counts as in vivo, BALB/c mice. The procedure:
Macrophages and the pro-inflammatory cytokines IL-6 and IL-1β are known to perform a major role in the development and progression of joint destruction in animal models and patients with RA. […] Next, it was asked whether or not the in vitro results translate to an in vivo model. 3′SL efficacy in a collagen antibody-induced arthritis (CAIA) model was tested in mice. In the CAIA model, arthritis is induced by systemic administration of a cocktail of monoclonal antibodies that target various regions of collagen type II, which is one of the major constituents of articular cartilage matrix proteins, followed by the administration of endotoxin (LPS) on day 3. The high uptake rate in the CAIA model and the capacity to synchronize the development of arthritis from the time of antibody injection, makes this a relatively straightforward model that is used to address questions of pathogenic mechanisms and to screen candidate therapeutic agents.
8-week old female BALB/c mice were injected with 1.5 mg of Arthrogen-CIA monoclonal antibody cocktail (Chondrex, Inc.). Three days later, the mice were injected with 25 μg of LPS. Beginning with the time of LPS administration and followed for the next 11 consecutive days, mice were orally gavaged thrice daily with either 3′SL (20 mg in saline) or saline alone as control. With the tester blinded to the study groups, arthritis in each limb was determined once per day. […] By adding together, the scores of all four limbs, the maximum score per mouse is 28. In addition, a caliper was placed across the ankle joint at the widest point to measure ankle thickness in both hind limbs daily. 14 days after antibody cocktail administration, mice were euthanized and hind paws collected and processed for histology. H&E—as well as Toluidine blue-stained sections were scored from 0 to 4 for inflammation, bone erosion and cartilage depletion based on a previously validated scoring system.

Setting [4] is: hind paws, day 14, score 0 to 4, oral 20 mg thrice daily.
Where [5] appears, read: oral gavage 20 mg in saline thrice daily, from LPS administration, vs saline.

As for `CC(=O)N[C@H]1[C@H]([C@H](O)[C@H](O)CO)O[C@@](O[C@H]2[C@@H](O)[C@@H](CO)O[C@@H](O[C@H]3[C@H](O)[C@@H](O)C(O)O[C@@H]3CO)[C@@H]2O)(C(=O)O)C[C@@H]1O` (stereo partly shown) [3′SL, 3′-sialyllactose], the “IL-6 and IL-1β mRNA expression” value with RAW 264.7 cells (LPS-activated macrophages, individual oligosaccharides) is listed as “most effective in reducing”. The “IC50 (reducing IL-6 and IL-1β mRNA expression)” value with RAW 264.7 cells (dose-range finding studies) is on record as “around 15 μg/mL”. Further, in data set [1], the pro-inflammatory cytokine expression result is given as “reduced”. Also, the pro-inflammatory cytokine expression entry in data set [2] is reported as “reduced”. For the same compound, in data set [3] (14-day study period, oral 20 mg thrice daily), the adverse effects entry is “No adverse effects were observed”. Also, in data set [3] (setting [4]), the “histology score for cartilage damage” value is “significantly lower”, the “histology score for erosion” value is listed as “significantly lower” and the “histology score for inflammation” value is reported as “significantly lower”. Besides, in data set [3] (setting [5]), the “Baseline-corrected ankle thickness (paw swelling)” value was “significantly reduced” and the “clinical index score 28” value is reported as “significantly reduced”.
